Usually Ki stands for the dissociation constant of the complex between target and ligand, obtained from inhibition or displacement.

The target of this experiment is T1, full length human recombinant glucocorticoid receptor (Homo sapiens, UniProt P04150).
T1 construct: It contains some partially purified full length human recombinant glucocorticoid receptor; purchased Panvera/Invitrogen PV4302
T1 sequence (P04150 1-777): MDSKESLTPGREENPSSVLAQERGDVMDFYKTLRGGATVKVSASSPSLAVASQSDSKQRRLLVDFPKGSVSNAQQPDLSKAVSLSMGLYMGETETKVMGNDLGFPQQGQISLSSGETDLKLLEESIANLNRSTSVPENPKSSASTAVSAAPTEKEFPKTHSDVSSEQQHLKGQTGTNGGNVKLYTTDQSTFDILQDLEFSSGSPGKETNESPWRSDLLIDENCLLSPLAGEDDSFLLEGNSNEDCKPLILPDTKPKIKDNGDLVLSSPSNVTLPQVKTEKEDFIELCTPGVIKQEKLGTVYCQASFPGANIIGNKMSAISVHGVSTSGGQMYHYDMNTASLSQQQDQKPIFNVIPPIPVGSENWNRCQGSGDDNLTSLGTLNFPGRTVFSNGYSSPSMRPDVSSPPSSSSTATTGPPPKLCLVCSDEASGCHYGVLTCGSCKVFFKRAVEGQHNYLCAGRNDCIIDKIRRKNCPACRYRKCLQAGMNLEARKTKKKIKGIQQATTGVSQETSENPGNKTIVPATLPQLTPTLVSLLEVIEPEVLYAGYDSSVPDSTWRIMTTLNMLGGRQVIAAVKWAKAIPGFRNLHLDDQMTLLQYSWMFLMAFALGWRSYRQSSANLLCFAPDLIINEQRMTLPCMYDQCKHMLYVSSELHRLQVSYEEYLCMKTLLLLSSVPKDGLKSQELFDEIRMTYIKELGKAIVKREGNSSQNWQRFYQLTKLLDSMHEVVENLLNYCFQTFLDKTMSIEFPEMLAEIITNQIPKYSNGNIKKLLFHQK
Nature of the experiment: Glucocorticoid Receptor Binding Assay (Glucocorticoid Receptor Competitor Assay far red kit, fluorescence polarization). Conditions: competition with fluorescent GR ligand Fluormone GS Far Red, 3 hours at 22° C., pH 7.4; Ki calculated from IC50 by Cheng-Prusoff. Put shortly: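 Fluorescence polarization competition with partially purified full-length human recombinant GR, stabilizing peptide and Fluormone GS Far Red tracer in screening buffer pH 7.4; 3 hours at 22° C in the dark, read at 610–660 nm. IC50 from sigmoidal fit; Ki by Cheng-Prusoff.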

Structures are written as SMILES.

For `CCOC(=O)COc1cc(-c2ccc([C@H](C)[C@](O)(c3cc(F)c4c(c3)N(C)C(=O)CO4)C(F)(F)F)c(Cl)c2)ccc1F` (relative stereo) [Example 47, {3′-Chloro-4-fluoro-4′-[3,3,3-trifluoro-2-(8-fluoro-4-methyl-3-oxo-3,4-dihydro-2H-benzo[1,4]oxazin-6-yl)-2-hydroxy-1-methyl-propyl]-biphenyl-3-yloxy}-acetic acid ethyl ester], the Ki is 2 nM.

As for `COC(=O)c1ccc(-c2ccc([C@@H](C)[C@@](O)(c3cccc4c3OCC(=O)N4C)C(F)(F)F)c(Cl)c2)cc1F` (relative stereo) [Example 53, 3′-Chloro-3-fluoro-4′-[3,3,3-trifluoro-2-hydroxy-1-methyl-2-(4-methyl-3-oxo-3,4-dihydro-2H-benzo[1,4]oxazin-8-yl)-propyl]-biphenyl-4-carboxylic acid methyl ester], the Ki was 66.1 nM.

For the compound `CCN1C(=O)COc2ccc([C@](O)([C@H](C)c3ccc(-c4ccc(C(=O)O)c(F)c4)cc3Cl)C(F)(F)F)cc21` (relative stereo) [Example 65, 3′-Chloro-4′-[2-(4-ethyl-3-oxo-3,4-dihydro-2H-benzo[1,4]oxazin-6-yl)-3,3,3-trifluoro-2-hydroxy-1-methyl-propyl]-3-fluoro-biphenyl-4-carboxylic acid], the inhibition constant Ki was 128 nM.

In the case of `CCN1C(=O)COc2ccc([C@](O)([C@H](C)c3ccc(-c4ccc(Cl)c(C(=O)O)c4)cc3Cl)C(F)(F)F)cc21` (relative stereo) [Example 66, 4,3′-Dichloro-4′-[2-(4-ethyl-3-oxo-3,4-dihydro-2H-benzo[1,4]oxazin-6-yl)-3,3,3-trifluoro-2-hydroxy-1-methyl-propyl]-biphenyl-3-carboxylic acid], the inhibition constant Ki was 191 nM.

`CCN1C(=O)COc2ccc([C@](O)([C@H](C)c3ccc(-c4ccc(F)c(C(=O)O)c4)cc3Cl)C(F)(F)F)cc21` (relative stereo) [Example 67, 3′-Chloro-4′-[2-(4-ethyl-3-oxo-3,4-dihydro-2H-benzo[1,4]oxazin-6-yl)-3,3,3-trifluoro-2-hydroxy-1-methyl-propyl]-4-fluoro-biphenyl-3-carboxylic acid]: the Ki was 40.2 nM.

For `CCN1C(=O)COc2ccc([C@](O)([C@H](C)c3ccc(Oc4cc(C(F)(F)F)c(C(=O)O)cn4)cc3Cl)C(F)(F)F)cc21` (relative stereo) [Example 68, 6-{3-Chloro-4-[2-(4-ethyl-3-oxo-3,4-dihydro-2H-benzo[1,4]oxazin-6-yl)-3,3,3-trifluoro-2-hydroxy-1-methyl-propyl]-phenoxy}-4-trifluoromethyl-nicotinic acid], the Ki was 59.8 nM.

For the compound `CCN1C(=O)COc2ccc([C@@](O)([C@@H](C)c3ccc(Oc4ccc(C(=O)O)c(Cl)n4)cc3Cl)C(F)(F)F)cc21` (relative stereo) [Example 69, 2-Chloro-6-{3-chloro-4-[2-(4-ethyl-3-oxo-3,4-dihydro-2H-benzo[1,4]oxazin-6-yl)-3,3,3-trifluoro-2-hydroxy-1-methyl-propyl]-phenoxy}-nicotinic acid], the Ki is 35.9 nM.

Turning to `COC(=O)c1ccc(-c2ccc([C@@H](C)[C@@](O)(c3ccc4c(c3)NC(=O)CO4)C(F)(F)F)c(Cl)c2)cc1F` (relative stereo) [Example 71, 3′-Chloro-3-fluoro-4′-[3,3,3-trifluoro-2-hydroxy-1-methyl-2-(3-oxo-3,4-dihydro-2H-benzo[1,4]oxazin-6-yl)-propyl]-biphenyl-4-carboxylic acid methyl ester], the Ki was 28.1 nM.

Turning to `C[C@H](c1ccc(-c2ccc(C(=O)O)c(F)c2)cc1Cl)[C@@](O)(c1ccc2c(c1)NC(=O)CO2)C(F)(F)F` (relative stereo) [Example 72, 3′-Chloro-3-fluoro-4′-[3,3,3-trifluoro-2-hydroxy-1-methyl-2-(3-oxo-3,4-dihydro-2H-benzo[1,4]oxazin-6-yl)-propyl]-biphenyl-4-carboxylic acid], the Ki was 222 nM.

As to `C[C@H](c1ccc(-c2ccc(C(=O)O)nc2)cc1Cl)[C@@](O)(c1ccc2c(c1)n(C)c(=O)n2C)C(F)(F)F` (relative stereo) [Example 84, 5-{3-Chloro-4-[2-(1,3-dimethyl-2-oxo-2,3-dihydro-1H-benzoimidazol-5-yl)-3,3,3-trifluoro-2-hydroxy-1-methyl-propyl]-phenyl}-pyridine-2-carboxylic acid], the Ki is 11.9 nM.

In the case of `C[C@H](c1ccc(Oc2ccccc2C(=O)O)cc1Cl)[C@@](O)(c1ccc2c(c1)n(C)c(=O)n2C)C(F)(F)F` (relative stereo) [Example 96, 2-{3-Chloro-4-[2-(1,3-dimethyl-2-oxo-2,3-dihydro-1H-benzoimidazol-5-yl)-3,3,3-trifluoro-2-hydroxy-1-methyl-propyl]-phenoxy}-benzoic acid], the Ki is 2.4 nM.

Take `COc1cc(Oc2ccc([C@@H](C)[C@@](O)(c3ccc4c(c3)n(C)c(=O)n4C)C(F)(F)F)c(Cl)c2)ccc1C(=O)O` (relative stereo) [Example 97, 4-{3-Chloro-4-[2-(1,3-dimethyl-2-oxo-2,3-dihydro-1H-benzoimidazol-5-yl)-3,3,3-trifluoro-2-hydroxy-1-methyl-propyl]-phenoxy}-2-methoxy-benzoic acid]: the Ki was 5 nM.

As to `C[C@H](c1ccc(Oc2ccc(C(=O)O)cc2)cc1Cl)[C@@](O)(c1ccc2c(c1)n(C)c(=O)n2C)C(F)(F)F` (relative stereo) [Example 98, 4-{3-Chloro-4-[2-(1,3-dimethyl-2-oxo-2,3-dihydro-1H-benzoimidazol-5-yl)-3,3,3-trifluoro-2-hydroxy-1-methyl-propyl]-phenoxy}-benzoic acid], the Ki is 1.6 nM.

Turning to `C[C@H](c1ccc(Oc2cccc(C(=O)O)c2)cc1Cl)[C@@](O)(c1ccc2c(c1)n(C)c(=O)n2C)C(F)(F)F` (relative stereo) [Example 99, 3-{3-Chloro-4-[2-(1,3-dimethyl-2-oxo-2,3-dihydro-1H-benzoimidazol-5-yl)-3,3,3-trifluoro-2-hydroxy-1-methyl-propyl]-phenoxy}-benzoic acid], the Ki was 1.2 nM.

For the compound `C[C@@H](c1ccc(Oc2cc(C(F)(F)F)c(C(=O)O)cn2)cc1Cl)[C@](O)(c1ccc2c(c1)n(C)c(=O)n2C)C(F)(F)F` (relative stereo) [Example 102, 6-{3-Chloro-4-[2-(1,3-dimethyl-2-oxo-2,3-dihydro-1H-benzoimidazol-5-yl)-3,3,3-trifluoro-2-hydroxy-1-methyl-propyl]-phenoxy}-4-trifluoromethyl-nicotinic acid], the Ki is 0.5 nM.

In the case of `C[C@H](c1ccc(Oc2ccc(C(=O)O)c(Cl)c2)cc1Cl)[C@](O)(c1ccc2c(c1)OCO2)C(F)(F)F` (relative stereo) [Example 103, 4-[4-(2-Benzo[1,3]dioxol-5-yl-3,3,3-trifluoro-2-hydroxy-1-methyl-propyl)-3-chloro-phenoxy]-2-chloro-benzoic acid], the Ki is 23.1 nM.

For `C[C@H](c1ccc(Oc2cnc(C(=O)O)cn2)cc1Cl)[C@@](O)(c1ccc2c(c1)n(C)c(=O)n2C)C(F)(F)F` (relative stereo) [Example 106, 5-{3-Chloro-4-[2-(1,3-dimethyl-2-oxo-2,3-dihydro-1H-benzoimidazol-5-yl)-3,3,3-trifluoro-2-hydroxy-1-methyl-propyl]-phenoxy}-pyrazine-2-carboxylic acid], the inhibition constant Ki is 5.2 nM.

The values are drawn from patent US8450313B2, “2,3-diaryl- or heteroaryl-substituted 1,1,1-trifluoro-2-hydroxypropyl compounds” (Hoffmann-La Roche Inc., priority 2009, dated 2013).
